Patent US20120172392A1, “AMINE-BASED AND AMIDE-BASED INHIBITORS OF SEMICARBAZIDE-SENSITIVE AMINE OXIDASE (SSAO) ENZYME ACTIVITY AND VAP-1 MEDIATED ADHESION USEFUL FOR TREATMENT OF DISEASES” (priority 2004, published 2012)
Counter-ions that a name gives are not always drawn.

Legend:
[1] = target: T1, SSAO (Rattus norvegicus, UniProt O08590); assay: In vitro inhibition of SSAO activity, radiolabeled benzylamine procedure (rat lung homogenate); assay type: biochemical
T1 construct: SSAO activity in 100 ul of lung homogenate was determined radiochemically; from tissue; host or cells: rat lung homogenate (1000 g supernatant)
T1 sequence (O08590 1-763): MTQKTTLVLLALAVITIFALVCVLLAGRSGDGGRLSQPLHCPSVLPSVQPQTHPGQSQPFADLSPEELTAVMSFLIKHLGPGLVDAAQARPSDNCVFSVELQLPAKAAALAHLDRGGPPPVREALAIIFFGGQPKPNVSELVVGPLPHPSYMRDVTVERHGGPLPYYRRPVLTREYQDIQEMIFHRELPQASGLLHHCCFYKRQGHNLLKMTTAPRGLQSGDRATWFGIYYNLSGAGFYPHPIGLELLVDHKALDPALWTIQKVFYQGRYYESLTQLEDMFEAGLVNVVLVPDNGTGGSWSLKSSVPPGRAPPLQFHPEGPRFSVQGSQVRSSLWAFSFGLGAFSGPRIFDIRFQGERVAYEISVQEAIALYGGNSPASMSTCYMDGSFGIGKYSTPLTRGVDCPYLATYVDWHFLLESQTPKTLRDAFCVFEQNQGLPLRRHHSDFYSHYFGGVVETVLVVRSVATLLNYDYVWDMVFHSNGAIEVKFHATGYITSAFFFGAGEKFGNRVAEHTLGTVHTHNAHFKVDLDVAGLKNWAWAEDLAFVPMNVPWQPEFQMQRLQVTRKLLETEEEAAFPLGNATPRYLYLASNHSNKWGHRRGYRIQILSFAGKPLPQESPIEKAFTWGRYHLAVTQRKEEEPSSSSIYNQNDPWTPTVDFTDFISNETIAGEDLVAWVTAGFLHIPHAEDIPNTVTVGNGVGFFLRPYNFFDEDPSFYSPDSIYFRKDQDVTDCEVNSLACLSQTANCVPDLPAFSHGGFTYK

[2] = test system: Sprague Dawley rats; assay: Carrageenan-induced rat paw edema; assay type: in vivo; conditions: 30 mg/kg p.o. one hour before carrageenan; 1-6 h
Description: Female Sprague Dawley rats were used and compounds of the invention were injected i.p. or dosed orally prior to carrageenan exposure. An equal volume of vehicle (PBS) was administered to the control group. Edema in the paws was induced as previously described by injecting 50 μl of a 0.5% solution of carrageenan (Type TV Lambda, Sigma) in saline with a 27-G needle s.c. in the right foot pat. (See Whiteley P. E. and Dalrymple S. A. (1998), Models of inflammation: carrageenan-induced paw edema in the rat, in Current Protocols in Pharmacology. Enna Si, Williams M, Ferkany J W, Kenaki T, Porsolt R E and Sullivan J P, eds., pp 5.4.1-5.4.3, John Wiley & Sons, New York) The size of the tested foot of each animal was measured volumetrically, before induction of edema, and at 1, 2, 3, 4, and 6 hours after carrageenan induction, to screen for compounds which inhibit the development of edema as compared to control animals.
The results of an experiment where three compounds of Example 21, Table I (LJP 1379, LJP 1383, LJP 1406) were used are shown in FIG. 2A, FIG. 2B, and FIG. 2C. […] Paw volumes were recorded at the indicated times and expressed as percent of the volume before injection (100%). […] Paw volumes were recorded at the indicated times and expressed as percent of the volume before injection (100%). […]

reversibility of inhibition of SSAO enzyme activity [1]: irreversible
SMILES: NCC(=O)NCc1cc(F)cc(C(F)(F)F)c1 [LJP 1383, 2-amino-N-(3-fluoro-5-trifluoromethylbenzyl)acetamide trifluoroacetate]
paw swelling (paw volume) [2]: significantly reduced the paw swelling at all time points tested
